From US12252469B2, “Crystalline forms of (E)-N-hydroxy-3-(1-(phenylsulfonyl)indolin-5-yl)acrylamide” (ANBOGEN THERAPEUTICS INC., priority 2023, dated 2025)
Converted amounts (≈) assume the structure as drawn.

Key:
Format in all cases: physicochemical
[1] = Approximate solubility of starting material in 20 solvents at RT
Protocol: (peak) with one exotherm at 166.1° C. (peak). Approximate solubility of starting material was determined in 20 solvents at RT. Approximately 2 mg of sample was added into a 3-mL glass vial. Solvents in Table 2 were then added stepwise into the vials until the solids were dissolved visually or a total volume of 2 mL was reached. Solubility results summarized in Table 2 were used to guide the solvent selection in screening experiment design.

[2] = DVS water uptake
Protocol: DVS was measured via a SMS (Surface Measurement Systems) DVS Intrinsic or Intrinsic Plus. The relative humidity at 25° C. were calibrated against deliquescence point of LiCl, Mg(NO3)2 and KCl.

[3] = Competitive slurry, inter-conversion of Type A and Type B; settings: t-Butanol and t-Butanol/H2O, RT; water activity calculated from KF by COSMOlogic

- solubility ([1]; THE (as stored; likely THF), organic solvent or mixture, thermodynamic from solid, THE, RT): > 44000 µg/mL
- solubility ([1]; organic solvent or mixture, thermodynamic from solid, 1,4-Dioxane, RT): 21000 to 42000 µg/mL (≈ 61 to 122 mM)
- solubility ([1]; organic solvent or mixture, thermodynamic from solid, 2-MeTHF, RT): 2000 to 5000 µg/mL (≈ 5.81 to 14.5 mM)
- solubility ([1]; organic solvent or mixture, thermodynamic from solid, ACN, RT): 9500 to 19000 µg/mL (≈ 27.6 to 55.2 mM)
- solubility ([1]; organic solvent or mixture, thermodynamic from solid, Acetone, RT): > 40000 µg/mL
- solubility ([1]; organic solvent or mixture, thermodynamic from solid, CHCl3, RT): < 1000 µg/mL
- solubility ([1]; organic solvent or mixture, thermodynamic from solid, DCM, RT): 1000 to 2000 µg/mL (≈ 2.9 to 5.81 mM)
- solubility ([1]; organic solvent or mixture, thermodynamic from solid, DMAc, RT): > 40000 µg/mL
- solubility ([1]; organic solvent or mixture, thermodynamic from solid, DMSO, RT): > 40000 µg/mL
- solubility ([1]; organic solvent or mixture, thermodynamic from solid, EtOAc, RT): 2000 to 5000 µg/mL (≈ 5.81 to 14.5 mM)
- solubility ([1]; organic solvent or mixture, thermodynamic from solid, EtOH, RT): 5500 to 11000 µg/mL (≈ 16 to 31.9 mM)
- solubility ([1]; organic solvent or mixture, thermodynamic from solid, IPA, RT): 2000 to 5000 µg/mL (≈ 5.81 to 14.5 mM)
- solubility ([1]; organic solvent or mixture, thermodynamic from solid, IPAc, RT): < 1100 µg/mL
- solubility ([1]; organic solvent or mixture, thermodynamic from solid, MIBK, RT): 2000 to 5000 µg/mL (≈ 5.81 to 14.5 mM)
- solubility ([1]; organic solvent or mixture, thermodynamic from solid, MTBE, RT): < 1000 µg/mL
- solubility ([1]; organic solvent or mixture, thermodynamic from solid, MeOH, RT): 20000 to 40000 µg/mL (≈ 58.1 to 116 mM)
- solubility ([1]; organic solvent or mixture, thermodynamic from solid, NMP, RT): > 40000 µg/mL
- solubility ([1]; organic solvent or mixture, thermodynamic from solid, Toluene, RT): < 1000 µg/mL
- solubility ([1]; organic solvent or mixture, thermodynamic from solid, n-Heptane, RT): < 1000 µg/mL
- solubility ([1]; water, thermodynamic from solid, H2O, RT): < 1000 µg/mL
- water uptake (DVS) ([2]; 25° C./80% RH): 0.1396%
- form change after DVS test (XRPD) ([2]; after DVS test): no form change
- water activity at which the form was obtained in competitive slurry [3]: ≥ 0.37
SMILES: O=C(/C=C/c1ccc2c(c1)CCN2S(=O)(=O)c1ccccc1)NO [Type A, (E)-N-hydroxy-3-(1-(phenylsulfonyl)indolin-5-yl) acrylamide]
